Reference: US20170304223A1, “METHOD OF TREATING PROSTATE CANCER USING A PKC INHIBITOR” (priority 2016, published 2017)

Columns and labels:
PKC-τ = molecular target: T1, PKC-τ (Homo sapiens, UniProt P41743); assay: PKC-iota levels in prostate cells by Western blot after treatment; type: cell-based; conditions: 72 hours after treatment
T1 construct: endogenous in cells; host or cells: DU-145
T1 sequence (P41743 1-596): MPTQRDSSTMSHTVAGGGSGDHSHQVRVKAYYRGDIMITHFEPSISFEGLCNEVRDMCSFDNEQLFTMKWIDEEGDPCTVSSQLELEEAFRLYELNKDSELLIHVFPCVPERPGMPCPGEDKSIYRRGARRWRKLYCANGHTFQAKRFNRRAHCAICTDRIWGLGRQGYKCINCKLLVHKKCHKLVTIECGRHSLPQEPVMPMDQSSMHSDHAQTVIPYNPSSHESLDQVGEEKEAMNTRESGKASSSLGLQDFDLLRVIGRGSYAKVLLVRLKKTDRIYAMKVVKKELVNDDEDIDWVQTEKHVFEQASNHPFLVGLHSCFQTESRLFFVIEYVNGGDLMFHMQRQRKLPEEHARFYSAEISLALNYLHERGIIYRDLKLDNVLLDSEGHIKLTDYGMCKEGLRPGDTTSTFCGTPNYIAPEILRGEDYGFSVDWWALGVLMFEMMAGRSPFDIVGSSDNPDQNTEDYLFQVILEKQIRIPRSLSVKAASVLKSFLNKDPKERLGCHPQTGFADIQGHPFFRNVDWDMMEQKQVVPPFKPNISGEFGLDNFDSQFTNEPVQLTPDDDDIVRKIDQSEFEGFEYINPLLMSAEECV
Method: Protein was harvested from cultured cells using Lysis Buffer purchased from Cell Signaling. Protein content was measured according to the Bradford method. Tissue extracts containing equal amounts of protein in each lane were run on SDS-PAGE gels. The tissue lysates (50 μg) were Western blotted for PKC-τ (10 μg, 1:2500 dilution): and PKC-ζ (5 μg, 1:4000 dilution) and β-actin (10 μg, 1:3000 dilution).
(§1) Western blots were developed on the Protein Simple Flour Chem M. Accompanied by the Alpha view software for analysis.
ICA-1 was used as a PKC-iota inhibitor. […] The cells were counted before and after the treatments and a statistical analysis was performed. Following cell counting, the cells were lysed and levels of PKC-iota and PKC-zeta were measured by Western blotting and immunoprecipitation.

RWPE cells = assay: Cell proliferation assay / cell counting, RWPE cells; type: cell-based, human; conditions: 10 μM, non-malignant cells (RWPE)
Method: (§2) RWPE epithelial cells and DU-145 human prostate carcinoma cells were purchased from American Type Culture Collection (ATCC). PC-3 cells were acquired from Moffit Cancer center. The cells were grown as a monolayer in a T25 tissue culture flask with 5 mL of growth medium and maintained in a 37 C incubator with 5% CO2. The E-MEM and F-12 growth media were obtained from ATCC. The medium was supplemented with 10% fetal bovine serum (FBS) and a mix of the antibiotics Penicillin (10,000 IU) and Streptomycin (10,000 μg/ml) in a 100× concentration which was purchased from Corning.
(§3) RWPE, DU 145 and PC-3 cells were cultured in a T25 cell culture flasks. 20,000 cells were seeded into each. […] The treatment was repeated over the course of 72 hours and samples were taken at 24 hour intervals.
(§4) RWPE, DU 145, and PC-3 cells were cultured in a T25 cell culture flasks. At assigned intervals the cells were trypsonized and put into a 1.5 mL microcentrifuge tube. Cells were inverted gently to keep the solution homogeneous and then the Cell Scepter by Millipore was used to measure cell numbers.

DU-145 cells = assay: Cell proliferation assay / cell counting, DU-145 cells; type: cell-based, human
Method: as §2, §3, §4

PC-3 cells = assay: Cell proliferation assay / cell counting, PC-3 cells; type: cell-based, human
Method: as §2, §3, §4

Cytochrome C = assay: Apoptotic marker Cytochrome C by Western blot; type: cell-based, human
Survivin = assay: Apoptotic marker Survivin by Western blot; type: cell-based, human
NF-kB = NF-kB translocation after TNF-α exposure (cell subfractionation); type: cell-based, human; conditions: DU-145 and PC-3 cells (cell line not specified), 10 μM, vs untreated control
Method: 20,000 cells were seeded into each.
as §1

[1] = DU-145 cells, 72 hours of treatment
[2] = RWPE cells, 72 hours of treatment

NC(=O)c1ncn([C@H]2C[C@@H](COP(=O)(O)O)[C@H](O)[C@@H]2O)c1N [ICA-1]
average decrease in PKC-τ (PKC-τ; DU-145 cells): 46% | decrease in PKC-τ (PKC-τ; PC-3 cells): 40% | decrease in cell population (dose-response curve) (RWPE cells): not having a significant decrease | decrease in cell population (dose-response curve) (DU-145 cells; 10 μM, malignant cells (DU-145)): statistically significant decrease in population | reduction in cell growth compared to untreated cells (DU-145 cells; DU-145 cells): 19% | average decline of cell population (PC-3 cells): 18% | increase in Cytochrome C (Cytochrome C; [1]): ~3 fold | increase in Cytochrome C (Cytochrome C; PC-3 cells): 2 fold | increase of Cytochrome C (Cytochrome C; [2]): 8% | reduction of Survivin (in words) (Survivin; [1]): reduction of Survivin by half | decrease in Survivin (Survivin; PC-3 cells): 40% | decrease in Survivin (Survivin; [2]): 10% | decrease of nucleic NFkB (NF-kB): 5 fold
